Data: paper PMC5218480 (PLoS ONE, 2017)

Test system: MV-4-11 cells
Assay: Gene expression microarray analysis (Affymetrix PrimeView) and GSEA
Format: cell-based, human
Set-up: RFU PODN (11730768_x_at) / Fold change /veh PODN (11730768_x_at) / RFU LINC00158 (11744669_a_at) / Fold change /veh LINC00158 (11744669_a_at) / RFU DUSP10 (11751237_a_at) / Fold change /veh DUSP10 (11751237_a_at) / RFU ID3 (11757404_x_at) / Fold change /veh ID3 (11757404_x_at) / RFU PLEKHG5 (11737974_s_at) / Fold change /veh PLEKHG5 (11737974_s_at) / RFU LRRC4B (11730491_at) / Fold change /veh LRRC4B (11730491_at) / RFU GIMAP4 (11747438_a_at) / Fold change /veh GIMAP4 (11747438_a_at) / RFU KRT8 (11758183_x_at) / Fold change /veh KRT8 (11758183_x_at) / RFU CNN1 (11734310_a_at) / Fold change /veh CNN1 (11734310_a_at) / RFU VPS37D (11726825_at) / Fold change /veh VPS37D (11726825_at) / RFU C10orf10 (11716522_x_at) / Fold change /veh C10orf10 (11716522_x_at) / RFU KIR2DL2 /// KIR2DL4 /// KIR2DL5A /// KIR2DL5B /// KIR2DS1 /// KIR2DS2 /// KIR2DS3 /// KIR2DS4 /// KIR3DL3 /// KIR3DL3 /// KIR3DS1 (11738374_at) / Fold change /veh KIR2DL2 /// KIR2DL4 /// KIR2DL5A /// KIR2DL5B /// KIR2DS1 /// KIR2DS2 /// KIR2DS3 /// KIR2DS4 /// KIR3DL3 /// KIR3DL3 /// KIR3DS1 (11738374_at) / RFU C1QL1 (11718748_at) / Fold change /veh C1QL1 (11718748_at) / RFU TMPRSS4 (11747572_a_at) / Fold change /veh TMPRSS4 (11747572_a_at) / RFU HAMP (11756126_x_at) / Fold change /veh HAMP (11756126_x_at) / RFU RNFT2 (11725882_a_at) / Fold change /veh RNFT2 (11725882_a_at) / RFU NR4A2 (11747474_a_at) / Fold change /veh NR4A2 (11747474_a_at) / RFU ABCC12 (11746883_a_at) / Fold change /veh ABCC12 (11746883_a_at) / RFU TMEM136 (11760407_x_at) / Fold change /veh TMEM136 (11760407_x_at) / RFU CLDN22 /// WWC2 (11732394_at) / Fold change /veh CLDN22 /// WWC2 (11732394_at) / RFU HLA-DPB1 (11760878_x_at) / Fold change /veh HLA-DPB1 (11760878_x_at) / RFU SPINT1 (11716480_a_at) / Fold change /veh SPINT1 (11716480_a_at) / RFU GAP43 (11754022_s_at) / Fold change /veh GAP43 (11754022_s_at) / RFU A4GNT (11735810_at) / Fold change /veh A4GNT (11735810_at) / RFU PRB3 (11715151_x_at) / Fold change /veh PRB3 (11715151_x_at) / RFU TUBB4B (11761932_at) / Fold change /veh TUBB4B (11761932_at) / RFU CAPN14 (11732068_a_at) / Fold change /veh CAPN14 (11732068_a_at) / RFU TMCC2 (11721928_a_at) / Fold change /veh TMCC2 (11721928_a_at) / RFU IRGQ (11745062_a_at) / Fold change /veh IRGQ (11745062_a_at) / RFU FAM174B (11720279_a_at) / Fold change /veh FAM174B (11720279_a_at) / RFU TMPRSS4 (11748680_a_at) / Fold change /veh TMPRSS4 (11748680_a_at) / RFU FAM212B (11763350_a_at) / Fold change /veh FAM212B (11763350_a_at) / RFU PLEKHG5 (11743358_a_at) / Fold change /veh PLEKHG5 (11743358_a_at) / RFU ZSCAN30 (11745921_a_at) / Fold change /veh ZSCAN30 (11745921_a_at) / RFU CMKLR1 (11741424_a_at) / Fold change /veh CMKLR1 (11741424_a_at) / RFU LOC101060620 /// MAPK8IP1 (11723275_at) / Fold change /veh LOC101060620 /// MAPK8IP1 (11723275_at) / RFU SPTSSB (11747773_x_at) / Fold change /veh SPTSSB (11747773_x_at) / RFU PRSS12 (11739890_at) / Fold change /veh PRSS12 (11739890_at) / RFU BIN1 (11741810_x_at) / Fold change /veh BIN1 (11741810_x_at) / RFU WNT11 (11732464_a_at) / Fold change /veh WNT11 (11732464_a_at) / RFU C10orf10 (11716521_a_at) / Fold change /veh C10orf10 (11716521_a_at) / RFU C5orf56 (11738089_at) / Fold change /veh C5orf56 (11738089_at) / RFU CYB561 (11721691_x_at) / Fold change /veh CYB561 (11721691_x_at) / RFU ANKRD19P (11752326_a_at) / Fold change /veh ANKRD19P (11752326_a_at) / RFU OR2T12 /// OR2T33 /// OR2T8 (11738714_s_at) / Fold change /veh OR2T12 /// OR2T33 /// OR2T8 (11738714_s_at) / RFU VCAN (11748164_a_at) / Fold change /veh VCAN (11748164_a_at) / RFU JSRP1 (11732532_at) / Fold change /veh JSRP1 (11732532_at) / RFU KRTAP10-11 (11738290_x_at) / Fold change /veh KRTAP10-11 (11738290_x_at) / RFU MYO3A (11730013_a_at) / Fold change /veh MYO3A (11730013_a_at) / RFU EBF3 (11725865_a_at) / Fold change /veh EBF3 (11725865_a_at) / RFU CAMK2N1 (11719241_x_at) / Fold change /veh CAMK2N1 (11719241_x_at) / RFU C5orf56 (11738088_a_at) / Fold change /veh C5orf56 (11738088_a_at) / RFU OLFML3 (11715873_a_at) / Fold change /veh OLFML3 (11715873_a_at) / RFU LOC100653217 /// NTM (11731650_a_at) / Fold change /veh LOC100653217 /// NTM (11731650_a_at) / RFU MAPK11 (11762145_a_at) / Fold change /veh MAPK11 (11762145_a_at) / RFU FIZ1 (11724087_x_at) / Fold change /veh FIZ1 (11724087_x_at) / RFU OASL (11726364_x_at) / Fold change /veh OASL (11726364_x_at) / RFU SOX15 (11748057_x_at) / Fold change /veh SOX15 (11748057_x_at) / RFU CD79A (11719716_a_at) / Fold change /veh CD79A (11719716_a_at) / RFU HIST1H1D (11736915_at) / Fold change /veh HIST1H1D (11736915_at) / RFU CASKIN2 (11723855_a_at) / Fold change /veh CASKIN2 (11723855_a_at) / RFU LOC730098 (11760151_x_at) / Fold change /veh LOC730098 (11760151_x_at) / RFU OR4N2 (11742367_at) / Fold change /veh OR4N2 (11742367_at) / RFU PRRT2 (11749266_a_at) / Fold change /veh PRRT2 (11749266_a_at) / RFU SNX32 (11753110_a_at) / Fold change /veh SNX32 (11753110_a_at) / RFU CDHR5 (11726645_a_at) / Fold change /veh CDHR5 (11726645_a_at) / RFU RCAN1 (11760418_a_at) / Fold change /veh RCAN1 (11760418_a_at) / RFU FAM167A (11723789_a_at) / Fold change /veh FAM167A (11723789_a_at) / RFU FAM26E (11764081_at) / Fold change /veh FAM26E (11764081_at) / RFU ISYNA1 (11749810_s_at) / Fold change /veh ISYNA1 (11749810_s_at) / RFU ACY1 (11761880_at) / Fold change /veh ACY1 (11761880_at) / RFU 11764098_at / Fold change /veh 11764098_at / RFU SAMD14 (11745864_x_at) / Fold change /veh SAMD14 (11745864_x_at) / RFU NPB (11741838_a_at) / Fold change /veh NPB (11741838_a_at) / RFU TMPRSS6 (11731388_a_at) / Fold change /veh TMPRSS6 (11731388_a_at) / RFU KRTAP10-2 (11738614_at) / Fold change /veh KRTAP10-2 (11738614_at) / RFU ARHGAP8 /// PRR5-ARHGAP8 (11727945_x_at) / Fold change /veh ARHGAP8 /// PRR5-ARHGAP8 (11727945_x_at) / RFU KRTAP5-7 /// NADSYN1 (11734609_at) / Fold change /veh KRTAP5-7 /// NADSYN1 (11734609_at) / RFU RASL12 (11751679_a_at) / Fold change /veh RASL12 (11751679_a_at) / RFU CDKN2B (11736163_a_at) / Fold change /veh CDKN2B (11736163_a_at) / RFU PRF1 (11729649_at) / Fold change /veh PRF1 (11729649_at) / RFU, ZNF638 /// ZNF638-IT1 / Fold change vs veh, ZNF638 /// ZNF638-IT1 / RFU, PANK3 / Fold change vs veh, PANK3 / RFU, SH3YL1 / Fold change vs veh, SH3YL1 / RFU, ZEB2 / Fold change vs veh, ZEB2 / RFU, NRIP1 / Fold change vs veh, NRIP1 / RFU, PTTG1IP / Fold change vs veh, PTTG1IP / RFU, CAPN2 / Fold change vs veh, CAPN2 / RFU, MED14 / Fold change vs veh, MED14 / RFU, SNORA58 / Fold change vs veh, SNORA58 / RFU, C1orf63 / Fold change vs veh, C1orf63 / RFU, LRRFIP1 / Fold change vs veh, LRRFIP1 / RFU, NDUFAF7 / Fold change vs veh, NDUFAF7 / RFU, SLC12A2 / Fold change vs veh, SLC12A2 / RFU, IBTK / Fold change vs veh, IBTK / RFU, ESF1 / Fold change vs veh, ESF1 / Fold change vs veh, TMEM50B / RFU, TAOK1 / Fold change vs veh, TAOK1 / RFU, ACBD3 / Fold change vs veh, ACBD3 / RFU, TMA16 / Fold change vs veh, TMA16 / RFU, RWDD3 / Fold change vs veh, RWDD3 / RFU, BCAT1 / Fold change vs veh, BCAT1 / RFU, EDEM3 / Fold change vs veh, EDEM3 / RFU, TMEM33 / Fold change vs veh, TMEM33 / RFU, WDR75 / Fold change vs veh, WDR75 / RFU, AHCTF1 / Fold change vs veh, AHCTF1 / RFU, TFRC / Fold change vs veh, TFRC / RFU, ZDHHC17 / Fold change vs veh, ZDHHC17 / RFU, NOM1 / Fold change vs veh, NOM1 / RFU, ARL8B / Fold change vs veh, ARL8B / RFU, ZBTB11 / Fold change vs veh, ZBTB11 / RFU, TAMM41 / Fold change vs veh, TAMM41 / RFU, KIAA1704 /// LOC100996395 / Fold change vs veh, KIAA1704 /// LOC100996395 / RFU, ING1 / Fold change vs veh, ING1 / RFU, TRMT61B / Fold change vs veh, TRMT61B / RFU, FUBP3 / Fold change vs veh, FUBP3 / RFU, TP53 / Fold change vs veh, TP53 / RFU, TNKS2 / Fold change vs veh, TNKS2 / RFU, ZFP14 / Fold change vs veh, ZFP14 / RFU, ACTR2 / Fold change vs veh, ACTR2 / RFU, PPP3R1 / Fold change vs veh, PPP3R1 / RFU, PIK3R1 / Fold change vs veh, PIK3R1 / RFU, HNRNPA1 / Fold change vs veh, HNRNPA1 / RFU, RNF170 / Fold change vs veh, RNF170 / RFU, ZNF28 / Fold change vs veh, ZNF28 / RFU, RNGTT / Fold change vs veh, RNGTT / RFU, OGT / Fold change vs veh, OGT / RFU, BRD1 / Fold change vs veh, BRD1 / RFU, MARS / Fold change vs veh, MARS / RFU, ZNF655 / Fold change vs veh, ZNF655 / RFU, FAHD1 / Fold change vs veh, FAHD1 / RFU, BDP1 / Fold change vs veh, BDP1 / RFU, LRRCC1 / Fold change vs veh, LRRCC1 / RFU, ARID1A / Fold change vs veh, ARID1A / RFU, ZNF146 / Fold change vs veh, ZNF146 / RFU, ZNF330 / Fold change vs veh, ZNF330 / RFU, GPN3 / Fold change vs veh, GPN3 / RFU, C9orf123 / Fold change vs veh, C9orf123 / RFU, N4BP2L2 / Fold change vs veh, N4BP2L2 / RFU, ARFIP1 / Fold change vs veh, ARFIP1 / RFU, FAM179B / Fold change vs veh, FAM179B / RFU, BCL10 / Fold change vs veh, BCL10 / RFU, UHRF1BP1L / Fold change vs veh, UHRF1BP1L / RFU, BET1 / Fold change vs veh, BET1 / RFU, CNOT2 / Fold change vs veh, CNOT2 / RFU, ZNF268 / Fold change vs veh, ZNF268 / Fold change vs veh, ZNF507 / RFU, DGCR2 / Fold change vs veh, DGCR2 / RFU, WDSUB1 / Fold change vs veh, WDSUB1 / Fold change vs veh, HSP90B1 /// MIR3652 / RFU, ADSS / Fold change vs veh, ADSS / RFU, GK / Fold change vs veh, GK / RFU, ZNF148 / Fold change vs veh, ZNF148 / RFU, TAF9 / Fold change vs veh, TAF9 / RFU, SLC1A5 / Fold change vs veh, SLC1A5 / RFU, SLMO2 / Fold change vs veh, SLMO2 / RFU, ABCC4 / Fold change vs veh, ABCC4 / RFU, LOC101060439 /// RAP1B / Fold change vs veh, LOC101060439 /// RAP1B / RFU, RFX7 / Fold change vs veh, RFX7 / RFU, GTPBP10 / Fold change vs veh, GTPBP10 / RFU, CNEP1R1 / Fold change vs veh, CNEP1R1 / RFU, BIVM-ERCC5 /// ERCC5 / Fold change vs veh, BIVM-ERCC5 /// ERCC5 / RFU, ILF3 / Fold change vs veh, ILF3 / RFU 11762660_at / Fold change /veh 11762660_at / RFU VCAN (11757783_s_at) / Fold change /veh VCAN (11757783_s_at) / RFU DDX43 (11728927_at) / Fold change /veh DDX43 (11728927_at) / RFU KRT8 (11758188_x_at) / Fold change /veh KRT8 (11758188_x_at) / RFU NKD1 (11759106_at) / Fold change /veh NKD1 (11759106_at) / RFU SRD5A1 (11742802_a_at) / Fold change /veh SRD5A1 (11742802_a_at) / RFU TPSAB1 /// TPSB2 (11721975_s_at) / Fold change /veh TPSAB1 /// TPSB2 (11721975_s_at) / RFU GSTM3 (11746129_a_at) / Fold change /veh GSTM3 (11746129_a_at) / RFU IL23R (11737362_x_at) / Fold change /veh IL23R (11737362_x_at) / RFU TMEM51 (11727254_a_at) / Fold change /veh TMEM51 (11727254_a_at) / RFU PIWIL2 (11732686_x_at) / Fold change /veh PIWIL2 (11732686_x_at) / RFU ORM1 (11744905_x_at) / Fold change /veh ORM1 (11744905_x_at) / RFU CCDC152 (11743942_at) / Fold change /veh CCDC152 (11743942_at) / RFU ECM1 (11717891_a_at) / Fold change /veh ECM1 (11717891_a_at) / RFU IL23R (11748794_a_at) / Fold change /veh IL23R (11748794_a_at) / RFU TNFAIP8L3 (11732012_x_at) / Fold change /veh TNFAIP8L3 (11732012_x_at) / RFU MBOAT4 (11741988_at) / Fold change /veh MBOAT4 (11741988_at) / RFU 11764193_at / Fold change /veh 11764193_at / RFU TMEM53 (11763286_at) / Fold change /veh TMEM53 (11763286_at) / RFU MAGEB2 (11727129_at) / Fold change /veh MAGEB2 (11727129_at) / RFU TMEM200A (11744735_a_at) / Fold change /veh TMEM200A (11744735_a_at) / RFU CCDC152 (11751479_a_at) / Fold change /veh CCDC152 (11751479_a_at) / RFU FAM211A (11726209_a_at) / Fold change /veh FAM211A (11726209_a_at) / RFU RGS16 (11746705_a_at) / Fold change /veh RGS16 (11746705_a_at) / RFU VCAN (11755009_s_at) / Fold change /veh VCAN (11755009_s_at) / RFU RHOB (11743442_s_at) / Fold change /veh RHOB (11743442_s_at) / RFU RGS16 (11720943_a_at) / Fold change /veh RGS16 (11720943_a_at) / RFU RGS16 (11720944_at) / Fold change /veh RGS16 (11720944_at) / RFU, VPS4B / Fold change vs veh, VPS4B / RFU, CREB1 / Fold change vs veh, CREB1 / RFU, DNAJC13 / Fold change vs veh, DNAJC13 / RFU, GNAQ / Fold change vs veh, GNAQ / RFU, CDK5R1 / Fold change vs veh, CDK5R1 / RFU, ZRANB3 / Fold change vs veh, ZRANB3 / RFU, CUL4A / Fold change vs veh, CUL4A / RFU, CCNY / Fold change vs veh, CCNY / RFU, UFL1 / Fold change vs veh, UFL1 / RFU, COG3 / Fold change vs veh, COG3 / RFU, DIAPH2 / Fold change vs veh, DIAPH2 / RFU, SKA2 / Fold change vs veh, SKA2 / RFU, AFF3 / Fold change vs veh, AFF3 / RFU, LMF1 / Fold change vs veh, LMF1 / RFU, IPO11 / Fold change vs veh, IPO11 / RFU, DFFB / Fold change vs veh, DFFB / RFU, FOXP1 / Fold change vs veh, FOXP1 / RFU, CARD8 / Fold change vs veh, CARD8 / RFU, STRN3 / Fold change vs veh, STRN3 / RFU, ADK / Fold change vs veh, ADK / RFU, RASSF2 / Fold change vs veh, RASSF2 / RFU, WIPF1 / Fold change vs veh, WIPF1 / RFU, LARP1B / Fold change vs veh, LARP1B / RFU, RASA1 / Fold change vs veh, RASA1 / RFU, RB1 / Fold change vs veh, RB1 / RFU, PPFIA1 / Fold change vs veh, PPFIA1 / RFU, MAT2A / Fold change vs veh, MAT2A / RFU, CCT5 / Fold change vs veh, CCT5 / RFU, WDR92 / Fold change vs veh, WDR92 / RFU, CUX1 / Fold change vs veh, CUX1 / RFU, TTC7A / Fold change vs veh, TTC7A / RFU, TMEM135 / Fold change vs veh, TMEM135 / RFU, DEPTOR / Fold change vs veh, DEPTOR / RFU, CPM / Fold change vs veh, CPM / RFU, DNAJB6 / Fold change vs veh, DNAJB6 / RFU, CACNA2D3 / Fold change vs veh, CACNA2D3 / RFU, DTX4 / Fold change vs veh, DTX4 / RFU, TFCP2 / Fold change vs veh, TFCP2 / RFU, GMCL1 /// GMCL1P1 / Fold change vs veh, GMCL1 /// GMCL1P1 / RFU, AEBP2 / Fold change vs veh, AEBP2 / RFU, SNHG1 /// SNORD22 /// SNORD25 /// SNORD26 /// SNORD27 /// SNORD28 /// SNORD29 /// SNORD31 / Fold change vs veh, SNHG1 /// SNORD22 /// SNORD25 /// SNORD26 /// SNORD27 /// SNORD28 /// SNORD29 /// SNORD31 / Fold change (Aza/veh), C12orf56 (ProbeSet 11735607_a_at) / Fold change (ACY-1035/veh), C12orf56 (ProbeSet 11735607_a_at) / Fold change (Aza/veh), FGFR1OP (ProbeSet 11751329_s_at) / Fold change (ACY-1035/veh), FGFR1OP (ProbeSet 11751329_s_at) / Fold change (Aza/veh), VPS36 (ProbeSet 11739960_a_at) / Fold change (ACY-1035/veh), VPS36 (ProbeSet 11739960_a_at) / RFU SYPL1 (11715823_x_at) / Fold change /veh SYPL1 (11715823_x_at) / RFU IGFBP7 (11715501_s_at) / Fold change /veh IGFBP7 (11715501_s_at) / RFU REEP3 (11722064_at) / Fold change /veh REEP3 (11722064_at) / RFU IGLL1 (11728026_x_at) / Fold change /veh IGLL1 (11728026_x_at): dose or concentration left out as unconfirmed
Conditions: ProbeSet 11719493_s_at; LIST B

Nc1ncn([C@@H]2O[C@H](CO)[C@@H](O)[C@H]2O)c(=O)n1 [azacitidine]
Fold change vs veh, TAF9: 1.00
